Data taken from patent publication US20030165864A1, “Genes regulated by DNA methylation in tumor cells” (priority 2001, published 2003).

Legend:
HT-29 cells [1] = settings: inhibition parallels induction of IFN responsive genes; cited from earlier work
[2] = tested on: HT29 colorectal carcinoma cells; experiment: microarray differential expression in 5-aza-2-deoxycytidine-treated versus untreated HT29 cells; type: cell-based, human; settings: for D.E. (log2): 500 nM, treated vs untreated HT29 cells
Description: Incyte clones represent template sequences derived from the LIFESEQ GOLD assembled human sequence database (Incyte Genomics). In cases where more than one clone was available for a particular template, the 5′-most clone in the template was used on the microarray. The HUMAN GENOME GEM series 1-4 microarrays (Incyte Genomics) contain 37,715 array elements which represent 12,989 annotated clusters and 24,726 unannotated clusters.
To construct microarrays, cDNAs were amplified from bacterial cells using primers complementary to vector sequences flanking the cDNA insert. Thirty cycles of PCR increased the initial quantity of cDNAs from 1-2 ng to a final quantity greater than 5 μg. Amplified cDNAs were then purified using SEPHACRYL-400 columns (APB). Purified cDNAs were immobilized on polymer-coated glass slides. Glass microscope slides (Corning, Corning N.Y.) were cleaned by ultrasound in 0.1% SDS and acetone, with extensive distilled water washes between and after treatments. Glass slides were etched in 4% hydrofluoric acid (VWR Scientific Products, West Chester Pa.), washed thoroughly in distilled water, and coated with 0.05% aminopropyl silane (Sigma Aldrich) in 95% ethanol. Coated slides were cured in a 110° C. oven. cDNAs were applied to the coated glass substrate using a procedure described in U.S. Pat. No. 5,807,522. One microliter of the cDNA at an average concentration of 100 ng/μl was loaded into the open capillary printing element by a high-speed robotic apparatus which then deposited about 5 nl of cDNA per slide.
Microarrays were UV-crosslinked using a STRATALINKER UV-crosslinker (Stratagene), and then washed at room temperature once in 0.2% SDS and three times in distilled water. Non-specific binding sites were blocked by incubation of microarrays in 0.2% casein in phosphate buffered saline (Tropix, Bedford Mass.) for 30 minutes at 60° C. followed by washes in 0.2% SDS and distilled water as before.
HT29 cells were derived from a Grade II adenocarcinoma of the colon obtained from a person. HT29 adenocarcinoma cells (American Type Culture Collection, Manassas Va.) were cultured in McCoy's medium supplemented with 10% fetal bovine serum (Invitrogen) at 37° C. and 5% CO2. Treated cells were exposed to 500 nM 5-aza-2-deoxycytidine (Sigma-Aldrich) 24 hr after passage in complete culture medium. Control cultures were treated in parallel with phosphate buffered saline vehicle. After twenty-four hours, culture medium was replaced with drug-free medium. Control and 5-aza-2-deoxycytidine-treated cells were subcultured at equal densities at 1 and 5 days after the initial treatment, and proliferation was measured at the subsequent time point using a Coulter counter (Beckman Coulter, Fullerton Calif.). Cells were harvested 9 days after the initial treatment.
Cells were harvested and lysed in 1 ml of TRIZOL reagent (5×10^6 cells/ml; Invitrogen). The lysates were vortexed thoroughly and incubated at room temperature for 2-3 minutes and extracted with 0.5 ml chloroform. The extract was mixed, incubated at room temperature for 5 minutes, and centrifuged at 16,000×g for 15 minutes at 4° C. The aqueous layer was collected and an equal volume of isopropanol was added. Samples were mixed, incubated at room temperature for 10 minutes, and centrifuged at 16,000×g for 20 minutes at 4° C. The supernatant was removed and the RNA pellet was washed with 1 ml of 70% ethanol, centrifuged at 16,000×g at 4° C., and resuspended in RNAse-free water. The concentration of the RNA was determined by measuring the optical density at 260 nm.
Poly(A) RNA was prepared using an OLIGOTEX mRNA kit (Qiagen) with the following modifications: OLIGOTEX beads were washed in tubes instead of on spin columns, resuspended in elution buffer, and then loaded onto spin columns to recover mRNA. To obtain maximum yield, the mRNA was eluted twice. […]

polyp formation = settings: in combination with a genetic reduction in DNA methyltransferase I activity; cited from earlier work
HT-29 cells [3] = settings: cultured HT-29 cells, colorectal cancer cell line; cited from earlier work
[4] = treated HT29 cells versus untreated cells

Structure (SMILES): Nc1ncn([C@H]2C[C@H](O)[C@@H](CO)O2)c(=O)n1 [5-aza-2-deoxycytidine]
- growth of HT-29 cells in culture (HT-29 cells [1]): inhibits growth
- D.E. (log2) ([2]; SEQ ID NO 1, GAGE-8 [Homo sapiens], harvested 9 days after treatment): 3.45 log2
- D.E. (log2) ([2]; SEQ ID NO 2, GAGE-7B [Homo sapiens]): 2.51 log2
- D.E. (log2) ([2]; SEQ ID NO 3, p27 [Homo sapiens]): 2.08 log2
- D.E. (log2) ([2]; SEQ ID NO 4, MAGE-6 antigen [Homo sapiens]): 1.74 log2
- D.E. (log2) ([2]; SEQ ID NO 5, interferon-inducible protein [Homo sapiens]): 1.62 log2
- D.E. (log2) ([2]; SEQ ID NO 6, MAGE-9 antigen [Homo sapiens]): 1.57 log2
- D.E. (log2) ([2]; SEQ ID NO 7, interferon-inducible peptide precursor [Homo sapiens]): 1.56 log2
- D.E. (log2) ([2]; SEQ ID NO 8, transcription factor ISGF-3 [Homo sapiens]): 1.49 log2
- D.E. (log2) ([2]; SEQ ID NO 9, HLA Class I region, chromosome 6p21.3, section 6/20 [Homo sapiens]): 1.40 log2
- D.E. (log2) ([2]; SEQ ID NO 10, hypothetical protein [Homo sapiens]): 1.33 log2
- D.E. (log2) ([2]; SEQ ID NO 11, GAGE-8 protein [Homo sapiens]): 2.67 log2
- D.E. (log2) ([2]; SEQ ID NO 12, putative tumor antigen [Homo sapiens]): 2.57 log2
- D.E. (log2) ([2]; SEQ ID NO 13, semaphorin B [Mus musculus]): 1.92 log2
- D.E. (log2) ([2]; SEQ ID NO 14, Incyte Unique, Template 213413.1): 2.10 log2
- D.E. (log2) ([2]; SEQ ID NO 15, Incyte Unique, Template 032481.1): 1.76 log2
- D.E. (log2) ([2]; SEQ ID NO 16, HLA Class I region, chromosome 6p21.3 [Homo sapiens]): 1.67 log2
- D.E. (log2) ([2]; SEQ ID NO 17, proline rich synapse associated protein 1 [Rattus norvegicus]): 1.66 log2
- D.E. (log2) ([2]; SEQ ID NO 18, hepatitis C-associated microtubular aggregate protein p44 [Homo sapiens]): 1.53 log2
- D.E. (log2) ([2]; SEQ ID NO 19, S100P calcium-binding protein [Homo sapiens], negative = downregulation): −1.34 log2
- D.E. (log2) ([2]; SEQ ID NO 20, G0S2 protein [Homo sapiens], negative = downregulation): −1.41 log2
- D.E. (log2) ([2]; SEQ ID NO 21, progesterone-induced protein [Oryctolagus cuniculus], negative = downregulation): −1.42 log2
- D.E. (log2) ([2]; SEQ ID NO 22, phosphoenolpyruvate carboxykinase [Homo sapiens], negative = downregulation): −1.72 log2
- D.E. (log2) ([2]; SEQ ID NO 23, unnamed protein product [Homo sapiens], negative = downregulation): −1.74 log2
- D.E. (log2) ([2]; SEQ ID NO 24, cystine/glutamate transporter [Homo sapiens], negative = downregulation): −1.81 log2
- D.E. (log2) ([2]; SEQ ID NO 25, Incyte Unique, Template 200578.1, negative = downregulation): −1.63 log2
- differential expression values of each cDNA (SEQ ID NOs: 1-25) ([2]; treated HT29 cells relative to untreated HT29 cells, up- or downregulation): greater than 2.5 fold
- upregulation of SEQ ID NO: 1 [2, 4]: > 5 fold
- upregulation of SEQ ID NO: 2 [2, 4]: > 5 fold
- upregulation of SEQ ID NO: 4 [2, 4]: > 3 fold
- upregulation of SEQ ID NO: 6 [2, 4]: > 3 fold
- upregulation of SEQ ID NO: 11 [2, 4]: > 5 fold
- upregulation of SEQ ID NO: 12 [2, 4]: > 5 fold
- polyp formation (polyp formation): reduced polyp formation
- gene expression after treatment (HT-29 cells [3]): specific expression of several genes related to interferon (IFN) signaling
